Legend:
cells = test: Trypan blue dye exclusion (cell viability and toxicity); assay type: cell-based; conditions: 1, 10, 50, 100 μM, 48 to 66 hours
Description: The trypan blue dye exclusion is commonly used for measuring cell viability and toxicity. 48-66 hours after treatment of ABAD compounds, the trypan blue exclusion experiments were performed. In brief, cells plated in 96-well plates were washed with the balanced salt solution (Hanks-Balanced Salts/HBSS) once, then replaced with HBSS including trypan blue solution to the final concentration of 0.2% (Sigma-Aldrich, St. Louis, Mo.), and mixed thoroughly. After standing at room temperature for 5 minutes, the cells were washed with HESS again and then maintained in the well with HBSS. Both the stained and unstained cells in each well were counted under a microscope (Nikon E400). The calculated percentage of unstained cells represented the percentage of viable cells. Cell viability (%)=total viable cells (unstained)/total cells (stained and unstained)×100.
The effect of ABAD inhibitors on cell viability and toxicity was assessed using MTT reduction assay and trypan blue exclusion, which are widely used to assess cell survival and toxicity and to screen for drugs toxicity. Cells were treated with a range of concentrations of ABAD compound (4 and 8) at 1, 10, 50, 100 μM for 48 to 66 hours.

[1] = Pharmacokinetic study and BBB penetration, LC-MS/MS of plasma and brain; assay type: in vivo, C57BL6 mice; conditions: mice, intravenous 10 mg/kg
Description: Using the validated LCMS/MS method, blood and brain levels of 4, 8, and 15 were measured in male and female C57BL6 mice (8-10 week-old, weighing approximately 25-30 grams). The mice were housed in a room with controlled temperature (23±3° C.) and moisture level (55±15% relative humidity) and exposed to a controlled 12 hour light/12 hour dark cycle. They were allowed to access to food and water ad libitum. Mice were fasted for 6 hours with free access to water prior to the pharmacokinetic study. To determine the time course of compounds 4, 8, and 15 action in the brain, the plasma pharmacokinetics and BBB penetration capability of the inhibitors were investigated. In these experiments, compounds 4, 8, and 15 were administered to mice by intravenous injection at a dosage of 10 mg/kg. Blood and brain samples were collected from mouse at each time point (2, 5, 10, 30, 60, 120, 240, 360, 720, 1440, and 2880 minutes), a total of 11 time points. For plasma measurements, blood (approximately 500-800 μl) was collected via cardiac-puncture into tubes containing sodium heparin anti-coagulant. Plasma was separated via centrifugation (4° C., 3500 rpm, 10 minutes) and stored in −80° C. freezer. For qualitative confirmations of these compounds in CSF, samples were collected at 2 time points (240 and 1440 min) from five animals at each time point. At the time of measurement, frozen plasma samples were thawed at room temperature and vortexed thoroughly. The following quantities were estimated using non-compartmental calculations performed with WINNONLIN 5.2 (Pharsight, Sunnyvale, Calif.): the area under the plasma concentration-time curve during the period of observation (AUC0-τ); the area under the plasma concentration-time curve from zero to infinity (AUC0-∞); the maximum plasma concentration (Cmax); the time to reach Cmax (Tmax); and the half-life (t1/2).
The LC-MS/MS method described above was used for the determination of 4, 8 and 15 in plasma, brain, and CSF for pharmacokinetic study. Based on the initial concentration data, the pharmacokinetic parameters including the area under the plasma concentration-time curve during the period of observation (AUC0-t), the area under the plasma concentration-time curve from zero to infinity (AUC0-∞) the maximum plasma concentration (Cmax) the time to reach Cmax (Tmax) and the half-life (t1/2) are shown in Table 8.

ABAD = assay type: biochemical
Description: Before the assay, all the assay components except SAAC were pre-incubated for 5 minutes, and the reaction started with the addition of SAAC into the reaction mix. The reaction was carried out for a total 6 minutes at room temperature under steady-state conditions, and the decrease of NADH absorbance at 340 nm was determined every 10 seconds. Kinetic data were analyzed by PRISM (Scitech, San Diego, Calif.) to determine IC50 values and Ki. One unit of enzyme activity was defined as that which converted 1.0 μmol of substrate to product per minute.

Compound	percentage of trypan blue-positive cells (cells)	t1/2 ([1]; Brain) [h]	t1/2 ([1]; Plasma) [h]	inhibitory effect on SAAC reduction by ABAD (ABAD)
COc1ccc2nc(N[C@@H](c3ccc(O)cc3)P(=O)(OC)OC)sc2c1 (racemic) [Compound 8, Dimethyl ((4-hydroxyphenyl)((6-methoxybenzo[d]thiazol-2-yl)amino)methyl)phosphonate]	did not exhibit decreased MTT reduction, increased percentage of trypan blue-positive cells	8.3	5.5	
COC(=O)c1cc([C@H](Nc2nc3ccc(OC)cc3s2)P(=O)(OC)OC)ccc1O [Compound 4, Methyl 5-((dimethoxyphosphoryl)((6-methoxybenzo[d]thiazol-2-yl)amino)methyl)-2-hydroxybenzoate]	did not exhibit decreased MTT reduction, increased percentage of trypan blue-positive cells	17.1	6.2	modest inhibitory effect
